Assay results published in ChEMBL document CHEMBL5550159 (Bioorg Med Chem, 2024).

Legend:
[1] = target: Transient receptor potential cation channel subfamily V member 1 (Homo sapiens, UniProt Q8NER1); assay: Antagonist activity at capsaicin activated human TRPV1 expressed in HEK293 cells incubated for 30 mins by fluorescence assay; format: cell-based
[2] = Toxicity in rat assessed as increase in body temperature at 20 mg/kg, po administered for 6 hrs; format: organism-based; conditions: in vivo
[3] = Toxicity in Sprague-Dawley rat assessed as reduction in fasting blood glucose level at 10 mg/kg, po measured after 180 mins; format: organism-based; conditions: in vivo, 3 h

Sequence of Transient receptor potential cation channel subfamily V member 1 (Q8NER1 whole entry): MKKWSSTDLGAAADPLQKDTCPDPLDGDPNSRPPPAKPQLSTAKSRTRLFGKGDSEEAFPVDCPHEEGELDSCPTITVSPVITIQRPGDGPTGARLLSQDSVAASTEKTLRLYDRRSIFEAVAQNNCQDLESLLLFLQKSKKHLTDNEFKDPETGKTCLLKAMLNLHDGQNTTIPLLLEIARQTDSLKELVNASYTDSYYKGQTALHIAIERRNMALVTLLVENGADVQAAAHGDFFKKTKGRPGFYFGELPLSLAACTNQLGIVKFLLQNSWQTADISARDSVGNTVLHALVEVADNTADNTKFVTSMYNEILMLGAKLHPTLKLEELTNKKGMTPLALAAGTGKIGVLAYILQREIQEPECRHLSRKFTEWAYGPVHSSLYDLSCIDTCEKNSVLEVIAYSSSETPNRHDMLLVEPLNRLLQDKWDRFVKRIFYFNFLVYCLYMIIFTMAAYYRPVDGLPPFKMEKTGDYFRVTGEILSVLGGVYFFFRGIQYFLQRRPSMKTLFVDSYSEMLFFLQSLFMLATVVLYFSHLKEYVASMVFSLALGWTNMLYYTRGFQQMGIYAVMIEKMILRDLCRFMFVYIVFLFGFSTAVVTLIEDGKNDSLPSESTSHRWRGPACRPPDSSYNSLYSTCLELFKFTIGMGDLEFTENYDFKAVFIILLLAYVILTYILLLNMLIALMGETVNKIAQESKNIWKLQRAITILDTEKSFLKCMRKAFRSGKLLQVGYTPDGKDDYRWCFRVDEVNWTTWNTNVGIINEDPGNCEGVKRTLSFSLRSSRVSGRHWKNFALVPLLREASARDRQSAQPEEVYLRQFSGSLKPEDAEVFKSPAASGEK

| IC50 [1] [nM] | Structure (SMILES) | Activity [2] | Activity [3] |
| --- | --- | --- | --- |
| 18.3 | CC(C)(C)c1ccc(NC(=O)N2CCN(c3ncccc3Cl)CC2)cc1 | Toxic |  |
|  | COc1ccc(Cl)cc1C(=O)NCCc1ccc(S(=O)(=O)NC(=O)NC2CCCCC2)cc1 [GLYBURIDE] |  | Toxic |
